Measurements from patent US20260217708A1, “FUSED BENZAZEPINE DERIVATIVES FOR USE IN THE TREATMENT OF CANCER AND EPILEPSY” (UCB BIOPHARMA SRL, priority 2023, published 2026).

Key:
system Xc^− [1] = target: T1, system Xc^− (Homo sapiens, UniProt Q9UPY5); experiment: [^14C]L-Cystine uptake assay; assay type: cell-based; parameters: endogenous in cells; host or cells: H4 cells; conditions: H4 cells, sodium-free HEPES buffer, 0.5 μM L-[14C]Cystine and 4.5 μM L-Cystine, 1 hour at 37° C.; for IC50: read-out: pIC50 [^14C] L-Cystine uptake assay (converted)
T1 sequence (Q9UPY5 1-501): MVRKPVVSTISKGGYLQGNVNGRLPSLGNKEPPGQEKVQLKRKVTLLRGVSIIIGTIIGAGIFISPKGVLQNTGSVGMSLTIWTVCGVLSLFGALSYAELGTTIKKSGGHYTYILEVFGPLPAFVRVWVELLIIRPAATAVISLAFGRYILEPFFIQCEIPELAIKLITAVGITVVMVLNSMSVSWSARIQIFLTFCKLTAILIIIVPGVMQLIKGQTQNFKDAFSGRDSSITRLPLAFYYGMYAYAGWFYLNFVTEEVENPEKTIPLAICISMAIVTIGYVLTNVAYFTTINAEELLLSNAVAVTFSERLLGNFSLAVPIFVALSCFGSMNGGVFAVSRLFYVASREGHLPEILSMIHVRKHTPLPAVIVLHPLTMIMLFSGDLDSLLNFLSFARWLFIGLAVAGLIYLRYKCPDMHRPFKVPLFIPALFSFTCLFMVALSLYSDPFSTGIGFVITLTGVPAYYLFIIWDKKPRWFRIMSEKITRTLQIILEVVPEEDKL
T1 sequence (P08195 1-529 partner): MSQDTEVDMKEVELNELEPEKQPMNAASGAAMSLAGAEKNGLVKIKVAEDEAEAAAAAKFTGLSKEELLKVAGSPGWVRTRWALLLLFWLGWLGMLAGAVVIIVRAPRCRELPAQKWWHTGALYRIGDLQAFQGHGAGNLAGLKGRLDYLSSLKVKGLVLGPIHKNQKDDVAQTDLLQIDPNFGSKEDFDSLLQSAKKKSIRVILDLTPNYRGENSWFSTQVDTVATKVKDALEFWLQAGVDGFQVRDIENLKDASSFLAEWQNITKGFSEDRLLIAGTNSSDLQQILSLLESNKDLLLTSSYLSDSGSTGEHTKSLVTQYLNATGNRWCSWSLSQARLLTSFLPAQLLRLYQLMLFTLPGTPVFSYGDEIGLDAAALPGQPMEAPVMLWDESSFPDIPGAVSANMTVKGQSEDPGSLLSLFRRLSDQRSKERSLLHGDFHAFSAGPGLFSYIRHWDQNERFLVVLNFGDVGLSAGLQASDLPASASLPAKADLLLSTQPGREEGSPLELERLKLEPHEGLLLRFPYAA
Summary of the method: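 Compound effect is given as pIC50, taken between controls of 1% DMSO and 50 μM Erastin. Human H4 cells were pretreated 15 min with compound in sodium-free buffer, then took up 0.5 μM [14C]cystine with 4.5 μM cold cystine for 1 hour at 37° C, read by scintillation proximity counting.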

system Xc^− [2] = target: T1, system Xc^−; experiment: Cystine-induced glutamate release assay; assay type: cell-based; parameters: endogenous in cells; host or cells: H4 cells; conditions: H4 cells, sodium-free HEPES buffer, 50 μM L-Cystine, 2 hours, Amplex Red glutamate readout; for IC50: read-out: pIC50 Cystine-induced glutamate release assay (converted)
Summary of the method: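 IC50 (reported as pIC50) normalized to DMSO 1% and Erastin 50 μM controls, from Amplex Red fluorescence of glutamate exported into supernatant. H4 cells were washed into sodium-free buffer to exclude EAAT transport, then given compound with 50 μM L-cystine for 2 h in the incubator.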

## Cc1cc2c(c(F)n1)-c1cccnc1C(CO)C(=O)N2CC(=O)Nc1ccc(C(F)F)cc1 (single isomer, unassigned) [#222, Enantiomer (10S) or (10R) of N-[4-(difluoromethyl)phenyl]-2-[3-fluoro-10-(hydroxymethyl)-5-methyl-9-oxo-4,8,12-triazatricyclo[9.4.0.0^2,7]pentadeca-1(15),2(7),3,5,11,13-hexaen-8-yl]acetamide]
System Xc^− [1]
  IC50: 39.8 to 100 nM
System Xc^− [2]
  IC50: 15.8 to 39.8 nM

## Cc1cc2c(c(Cl)n1)-c1cccnc1C(F)C(=O)N2CC(=O)Nc1ccc(C(F)F)cc1 (single isomer, unassigned) [#223, Enantiomer (10R) or (10S) of 2-[3-chloro-10-fluoro-5-methyl-9-oxo-4,8,12-triazatricyclo[9.4.0.0^2,7]pentadeca-1(11),2(7),3,5,12,14-hexaen-8-yl]-N-[4-(difluoromethyl)phenyl]acetamide]
System Xc^− [1]
  IC50: 15.8 to 39.8 nM
System Xc^− [2]
  IC50: < 15.8 nM

## Cc1cc2c(c(Cl)n1)-c1cccnc1C(C)C(=O)N2CC(=O)Nc1ccc(Br)c(F)c1 (single isomer, unassigned) [#224, Enantiomer (10S) or (10R) of N-(4-bromo-3-fluoro-phenyl)-2-[3-chloro-5,10-dimethyl-9-oxo-4,8,12-triazatricyclo[9.4.0.0^2,7]pentadeca-1(15),2,4,6,11,13-hexaen-8-yl]acetamide]
System Xc^− [1]
  IC50: < 15.8 nM
System Xc^− [2]
  IC50: 15.8 to 39.8 nM

## Cc1cc2c(c(Cl)n1)-c1cccnc1C(C)C(=O)N2CC(=O)Nc1ccc(C(F)(F)F)cc1F (single isomer, unassigned) [#225, Enantiomer (10S) or (10R) of N-[2-fluoro-4-(trifluoromethyl)phenyl]-2-[3-chloro-5,10-dimethyl-9-oxo-4,8,12-triazatricyclo[9.4.0.0^2,7]pentadeca-1(11),2(7),3,5,12,14-hexaen-8-yl]acetamide]
System Xc^− [1]
  IC50: < 15.8 nM
System Xc^− [2]
  IC50: < 15.8 nM

## Cc1cc2c(c(Cl)n1)-c1cccnc1C(C)C(=O)N2CC(=O)Nc1cc(F)c(Cl)cc1F (single isomer, unassigned) [#226, Enantiomer (10S) or (10R) of N-(4-chloro-2,5-difluoro-phenyl)-2-[3-chloro-5,10-dimethyl-9-oxo-4,8,12-triazatricyclo[9.4.0.0^2,7]pentadeca-1(11),2(7),3,5,12,14-hexaen-8-yl]acetamide]
System Xc^− [1]
  IC50: 15.8 to 39.8 nM
System Xc^− [2]
  IC50: < 15.8 nM

## Cc1cc2c(c(Cl)n1)-c1cccnc1C(C)C(=O)N2CC(=O)Nc1ccc(Br)cc1F (single isomer, unassigned) [#227, Enantiomer (10S) or (10R) of N-(4-bromo-2-fluoro-phenyl)-2-[3-chloro-5,10-dimethyl-9-oxo-4,8,12-triazatricyclo[9.4.0.0^2,7]pentadeca-1(11),2(7),3,5,12,14-hexaen-8-yl]acetamide]
System Xc^− [1]
  IC50: 15.8 to 39.8 nM
System Xc^− [2]
  IC50: < 15.8 nM

## Cc1cc2c(c(Cl)n1)-c1cccnc1C(C)C(=O)N2CC(=O)Nc1ccc(C(F)(F)F)nc1 (single isomer, unassigned) [#228, Enantiomer (10S) or (10R) of 2-[3-chloro-5,10-dimethyl-9-oxo-4,8,12-triazatricyclo[9.4.0.0^2,7]pentadeca-1(15),2,4,6,11,13-hexaen-8-yl]-N-[6-(trifluoromethyl)-3-pyridyl]acetamide]
System Xc^− [1]
  IC50: < 15.8 nM
System Xc^− [2]
  IC50: < 15.8 nM

## Cc1cc2c(c(Cl)n1)-c1cccnc1C(C)C(=O)N2CC(=O)Nc1ccc(C(F)(F)F)cn1 (single isomer, unassigned) [#229, Enantiomer (10S) or (10R) of 2-[3-chloro-5,10-dimethyl-9-oxo-4,8,12-triazatricyclo[9.4.0.0^2,7]pentadeca-1(15),2,4,6,11,13-hexaen-8-yl]-N-[5-(trifluoromethyl)-2-pyridyl]acetamide]
System Xc^− [1]
  IC50: 39.8 to 100 nM
System Xc^− [2]
  IC50: 15.8 to 39.8 nM

## Cc1cc2c(c(Cl)n1)-c1cccnc1C(C)C(=O)N2CC(=O)Nc1ccc(C(F)F)nc1 (single isomer, unassigned) [#230, Enantiomer (10R) or (10S) of 2-[3-chloro-5,10-dimethyl-9-oxo-4,8,12-triazatricyclo[9.4.0.0^2,7]pentadeca-1(11),2(7),3,5,12,14-hexaen-8-yl]-N-[6-(difluoromethyl)-3-pyridyl]acetamide]
System Xc^− [1]
  IC50: 15.8 to 39.8 nM
System Xc^− [2]
  IC50: 15.8 to 39.8 nM

## Cc1cc2c(c(F)n1)-c1cccnc1[C@@H](C)C(=O)N2CC(=O)Nc1ccc(C(F)F)c(F)c1 (single isomer, unassigned) [#235]
System Xc^− [1]
  IC50: < 15.8 nM
System Xc^− [2]
  IC50: < 15.8 nM

## Cc1cc2c(c(F)n1)-c1cccnc1[C@@H](C)C(=O)N2CC(=O)Nc1ccc(C(C)(F)F)c(F)c1 (single isomer, unassigned) [#236]
System Xc^− [1]
  IC50: 15.8 to 39.8 nM
System Xc^− [2]
  IC50: 15.8 to 39.8 nM

## Cc1cc2c(c(F)n1)-c1cccnc1[C@@H](C)C(=O)N2CC(=O)Nc1ccc2cnc(F)cc2c1 (single isomer, unassigned) [#239]
System Xc^− [1]
  IC50: 15.8 to 39.8 nM
System Xc^− [2]
  IC50: 15.8 to 39.8 nM

## Cc1cc2c(c(F)n1)-c1cccnc1[C@@H](C)C(=O)N2CC(=O)Nc1ccc2c(Cl)nccc2c1 (single isomer, unassigned) [#240]
System Xc^− [1]
  IC50: 39.8 to 100 nM
System Xc^− [2]
  IC50: 15.8 to 39.8 nM

## Cc1cc2c(cn1)-c1cccnc1C(C)C(=O)N2CC(=O)Nc1ccc(C(F)F)cc1 (single isomer, unassigned) [#250, Enantiomer (10S) or (10R) of N-[4-(difluoromethyl)phenyl]-2-[5,10-dimethyl-9-oxo-4,8,12-triazatricyclo[9.4.0.0^2,l]pentadeca-1(15),2,4,6,11,13-hexaen-8-yl]acetamide]
System Xc^− [1]
  pIC50 [^14C] L-Cystine uptake assay: B (about 7.00 < pIC50 ≤ about 7.40)
System Xc^− [2]
  pIC50 Cystine-induced glutamate release assay: C (about 7.40 < pIC50 ≤ about 7.80)

## Cc1cc2c(cn1)-c1cccnc1C(C)C(=O)N2CC(=O)Nc1ccc(Cl)c(F)c1 (single isomer, unassigned) [#251, N-(4-chloro-3-fluoro-phenyl)-2-[5,10-dimethyl-9-oxo-4,8,12-triazatricyclo[9.4.0.0^2,7]pentadeca-1(15),2,4,6,11,13-hexaen-8-yl]acetamide]
System Xc^− [1]
  IC50: < 15.8 nM
System Xc^− [2]
  IC50: < 15.8 nM

## Cc1cc2c(cn1)-c1cccnc1C(C)C(=O)N2CC(=O)Nc1ccc(C(F)F)c(F)c1 (single isomer, unassigned) [#252, N-[4-(difluoromethyl)-3-fluoro-phenyl]-2-[5,10-dimethyl-9-oxo-4,8,12-triazatricyclo[9.4.0.0^2,7]pentadeca-1(15),2,4,6,11,13-hexaen-8-yl]acetamide]
System Xc^− [1]
  IC50: 15.8 to 39.8 nM
System Xc^− [2]
  IC50: < 15.8 nM

## Cc1cc2c(cn1)-c1cccnc1C(C)C(=O)N2CC(=O)Nc1ccc(F)c(Cl)c1 (single isomer, unassigned) [#253, N-(3-chloro-4-fluoro-phenyl)-2-(5,10-dimethyl-9-oxo-4,8,12-triazatricyclo[9.4.0.0^2,7]pentadeca-1(11),2(7).3,5,12,14-hexaen-8-yl)acetamide]
System Xc^− [1]
  IC50: 39.8 to 100 nM
System Xc^− [2]
  IC50: 39.8 to 100 nM

## Cc1cc2c(c(F)n1)-c1ccnnc1C(C)C(=O)N2CC(=O)Nc1ccc(C(F)F)cc1 (single isomer, unassigned) [#257, N-[4-(difluoromethyl)phenyl]-2-[3-fluoro-5,10-dimethyl-9-oxo-4,8,12,13-tetrazatricyclo[9.4.0.0^2,7]pentadeca-1(15),2,4,6,11,13-hexaen-8-yl]acetamide]
System Xc^− [1]
  IC50: 39.8 to 100 nM
System Xc^− [2]
  IC50: 39.8 to 100 nM

## Cc1cc2c(c(Cl)n1)-c1ccnnc1C(C)C(=O)N2CC(=O)Nc1ccc(Cl)c(F)c1 (single isomer, unassigned) [#258, 2-[3-chloro-5,10-dimethyl-9-oxo-4,8,12,13-tetrazatricyclo[9.4.0.0^2,7]pentadeca-1(15),2,4,6,11,13-hexaen-8-yl]-N-(4-chloro-3-fluoro-phenyl)acetamide]
System Xc^− [1]
  IC50: < 15.8 nM
System Xc^− [2]
  IC50: < 15.8 nM
